Measurements from the supplement of paper PMC13207355.

Key:
Details in all cases: exposure time: 72 h
E13 [1] = patient-derived glioblastoma stem cells of classical subtype; experiment: surviving fraction (nuclei count normalised to DMSO); higher = more cells surviving (less toxic)
E21 [2] = patient-derived glioblastoma stem cells of mesenchymal subtype; experiment: as above
E28 [3] = patient-derived glioblastoma stem cells of classical subtype; experiment: as above
E31 [4] = patient-derived glioblastoma stem cells of proneural subtype; experiment: as above
E34 [5] = patient-derived glioblastoma stem cells of proneural subtype; experiment: as above
E57 [6] = patient-derived glioblastoma stem cells of mesenchymal subtype; experiment: as above
FT3469 [7] = normal neural stem cell line; experiment: as above
E13 [8] = experiment: phenotypic distance (Euclidean, principal components) from DMSO controls (arbitrary units); higher = stronger morphological change
E21 [9] = experiment: as above
E28 [10] = experiment: as above
E31 [11] = experiment: as above
E34 [12] = experiment: as above
E57 [13] = experiment: as above
FT3469 [14] = experiment: as above
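Throughout, for phenotypic distance (Euclidean, principal components) from DMSO controls: cell Painting imaging in 384-well plates, CellProfiler features reduced to at least 20 principal components, Euclidean distance versus same-plate DMSO vehicle wells (0.1% v/v), median over six images per well.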
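Throughout, for surviving fraction (nuclei count normalised to DMSO): nuclei counted by high-content imaging of Hoechst-stained cells in laminin-coated 384-well plates, relative to 0.1% DMSO vehicle wells, with staurosporine as cell-death control.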

CC[N+](CC)(CC)CCOc1ccc(/C=C/c2ccccc2)cc1 [MG 624]
Details	phenotypic distance	surviving fraction
E13 [1], 4.1 nM	–	0.872
E13 [1], 12.3 nM	–	1.01
E13 [1], 37 nM	–	0.904
E13 [1], 111.1 nM	–	0.898
E13 [1], 333.3 nM	–	0.819
E13 [1], 1000 nM	–	0.958
E13 [1], 3000 nM	–	0.636
E13 [8], 4.1 nM	0.785	–
E13 [8], 12.3 nM	1.16	–
E13 [8], 37 nM	0.769	–
E13 [8], 111.1 nM	0.848	–
E13 [8], 333.3 nM	1.65	–
E13 [8], 1000 nM	2.21	–
E13 [8], 3000 nM	2.89	–
E21 [2], 4.1 nM	–	0.978
E21 [2], 12.3 nM	–	0.972
E21 [2], 37 nM	–	0.961
E21 [2], 111.1 nM	–	1.05
E21 [2], 333.3 nM	–	1.02
E21 [2], 1000 nM	–	0.929
E21 [2], 3000 nM	–	0.748
E21 [9], 4.1 nM	0.724	–
E21 [9], 12.3 nM	0.703	–
E21 [9], 37 nM	0.669	–
E21 [9], 111.1 nM	0.982	–
E21 [9], 333.3 nM	1.38	–
E21 [9], 1000 nM	1.38	–
E21 [9], 3000 nM	2.84	–
E28 [3], 4.1 nM	–	1.04
E28 [3], 12.3 nM	–	1.24
E28 [3], 37 nM	–	0.999
E28 [3], 111.1 nM	–	1.11
E28 [3], 333.3 nM	–	1.29
E28 [3], 1000 nM	–	0.97
E28 [3], 3000 nM	–	0.897
E28 [10], 4.1 nM	2.26	–
E28 [10], 12.3 nM	1.2	–
E28 [10], 37 nM	0.981	–
E28 [10], 111.1 nM	1.14	–
E28 [10], 333.3 nM	1.59	–
E28 [10], 1000 nM	0.807	–
E28 [10], 3000 nM	0.948	–
E31 [4], 4.1 nM	–	1.02
E31 [4], 12.3 nM	–	1.02
E31 [4], 37 nM	–	0.927
E31 [4], 111.1 nM	–	1.22
E31 [4], 333.3 nM	–	1.03
E31 [4], 1000 nM	–	1.11
E31 [4], 3000 nM	–	0.671
E31 [11], 4.1 nM	2.31	–
E31 [11], 12.3 nM	2.34	–
E31 [11], 37 nM	0.662	–
E31 [11], 111.1 nM	1.14	–
E31 [11], 333.3 nM	1.83	–
E31 [11], 1000 nM	2.39	–
E31 [11], 3000 nM	3.97	–
E34 [5], 4.1 nM	–	1.13
E34 [5], 12.3 nM	–	0.931
E34 [5], 37 nM	–	0.93
E34 [5], 111.1 nM	–	0.904
E34 [5], 333.3 nM	–	1.06
E34 [5], 1000 nM	–	1.1
E34 [5], 3000 nM	–	0.853
E34 [12], 4.1 nM	0.531	–
E34 [12], 12.3 nM	0.708	–
E34 [12], 37 nM	1	–
E34 [12], 111.1 nM	0.94	–
E34 [12], 333.3 nM	1.4	–
E34 [12], 1000 nM	1.76	–
E34 [12], 3000 nM	0.649	–
E57 [6], 4.1 nM	–	0.981
E57 [6], 12.3 nM	–	0.982
E57 [6], 37 nM	–	1.06
E57 [6], 111.1 nM	–	1.1
E57 [6], 333.3 nM	–	1.15
E57 [6], 1000 nM	–	0.922
E57 [6], 3000 nM	–	1.05
E57 [13], 4.1 nM	0.764	–
E57 [13], 12.3 nM	0.906	–
E57 [13], 37 nM	0.99	–
E57 [13], 111.1 nM	1.14	–
E57 [13], 333.3 nM	1.29	–
E57 [13], 1000 nM	1.55	–
E57 [13], 3000 nM	1.49	–
FT3469 [7], 4.1 nM	–	0.999
FT3469 [7], 12.3 nM	–	0.934
FT3469 [7], 37 nM	–	1.26
FT3469 [7], 111.1 nM	–	1.25
FT3469 [7], 333.3 nM	–	1.13
FT3469 [7], 1000 nM	–	1.12
FT3469 [7], 3000 nM	–	1.03
FT3469 [14], 4.1 nM	0.491	–
FT3469 [14], 12.3 nM	1.05	–
FT3469 [14], 37 nM	0.814	–
FT3469 [14], 111.1 nM	1.61	–
FT3469 [14], 333.3 nM	1.29	–
FT3469 [14], 1000 nM	1.26	–
FT3469 [14], 3000 nM	1.36	–
